Measurements reported in patent US7910602B2 (Sanofi-Aventis, priority 2005, dated 2011).

Biological target: T1, GRK2 (βARK-1) (Homo sapiens, UniProt P25098)
T1 sequence (P25098 1-689): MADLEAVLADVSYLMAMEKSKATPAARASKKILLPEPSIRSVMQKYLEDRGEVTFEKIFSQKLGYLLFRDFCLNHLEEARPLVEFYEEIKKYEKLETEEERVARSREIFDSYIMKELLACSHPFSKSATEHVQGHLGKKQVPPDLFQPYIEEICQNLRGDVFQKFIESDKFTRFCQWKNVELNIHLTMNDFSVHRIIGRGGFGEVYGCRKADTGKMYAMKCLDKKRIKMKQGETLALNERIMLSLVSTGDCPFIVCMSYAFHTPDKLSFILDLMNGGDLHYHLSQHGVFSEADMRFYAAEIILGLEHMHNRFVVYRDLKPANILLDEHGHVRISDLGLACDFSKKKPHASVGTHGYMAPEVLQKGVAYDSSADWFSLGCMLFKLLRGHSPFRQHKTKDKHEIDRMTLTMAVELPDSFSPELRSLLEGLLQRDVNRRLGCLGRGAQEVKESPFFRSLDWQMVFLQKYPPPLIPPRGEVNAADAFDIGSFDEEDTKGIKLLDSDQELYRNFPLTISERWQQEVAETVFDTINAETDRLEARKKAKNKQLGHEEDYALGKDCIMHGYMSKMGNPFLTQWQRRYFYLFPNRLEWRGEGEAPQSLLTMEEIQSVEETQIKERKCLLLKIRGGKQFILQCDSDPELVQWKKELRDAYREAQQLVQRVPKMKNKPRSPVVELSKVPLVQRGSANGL
Test: GRK2 (βARK-1) kinase assay: 33P phosphorylation of biotinylated bovine tubulin dimers, scintillation counting
Assay type: biochemical
Details: 100 nM GRK2 pre-incubated with inhibitor 30 min at room temperature; 250 nM tubulin, 3 μM ATP, [γ-33P]-ATP, 30 min reaction
Procedure: The assay determines phosphorylation of biotinylated bovine tubulin dimers (250 nM; TEBU-BIO, # T333) coated to 384 well StreptaWell plates by 100 nM GRK2 which has been pre-incubated with inhibitor cpd. for 30 minutes at room temperature in assay buffer (20 mM Tris-HCl pH 7.4, 2 mM EDTA) containing 2.25% DMSO. The phosphorylation reaction was started by adding tubulin, MgCl2 (10 mM), ATP (3 μM), [γ-^33P]-ATP (0.4 μCi/40 μl) to the preincubated GRK2/compound complex. Then the assay mix was incubated for 30 min at room temperature before the kinase reaction was stopped adding 0.8% BSA, 0.8% Triton X 100, 80 mM EDTA and 400 μM ATP) followed by an 2-24 h incubation at +4° C. Due to the high energy of the […] free ^33P-ATP is removed by a washing step (3× with 100 μl 1×PBS pH 8.0) using a Tecan Power washer 384 to reduce background activity. Bound ^33P is determined by scintillation counting (60 μl scintillator, Ultimagold MV, 30 sec mix) using a Microbeta-counter (delay time 30 min).

Row | IC50 | Compound
1 | 20 nM | Cn1cc(-c2cc(C(N)=O)nc3[nH]ncc23)c2cc(OCC(N)=O)ccc21 [Example 8, 4-(5-Carbamoylmethoxy-1-methyl-1H-indol-3-yl)-1H-pyrazolo[3,4-b]pyridine-6-carboxylic acid amide]
2 | 2100 nM | NC(=O)c1cc(-c2cccc(O)c2)c2cn[nH]c2n1 [Example 16]
3 | 270 nM | Cn1cc(-c2cc(C(N)=O)nc3[nH]ncc23)c2ccccc21 [Example 4]

Row | Compound | IC50
4 | Cn1cc(-c2cc(C(N)=O)nc3[nH]ncc23)c2cc(OCC3CCCNC3)ccc21 (stereo not shown) [Example 3, 4-(1-methyl-5-(piperidin-3-ylmethoxy)-1H-indol-3-yl)-1H-pyrazolo(3,4-b)pyridine-6-carboxylic acid amide] | 700 nM
